Holding throughout (type): functional
One assay concerns Candida albicans. Briefly: Antifungal activity against Candida albicans SC5314 measured after 24 to 48 hrs by CLSI method. The following applies: time 24-48 hrs.
In a further assay the test system is Pichia kudriavzevii. Briefly: Antifungal activity against Candida krusei IFM56881 measured after 24 to 48 hrs by CLSI method. The following applies: time 24-48 hrs.
For the next assay, the system named is Cryptococcus neoformans. Kind of assay: Antifungal activity against Cryptococcus neoformans H99 measured after 24 to 48 hrs by CLSI method. As to conditions: time 24-48 hrs.
In the next assay the test system is Candida parapsilosis. Kind of assay: Antifungal activity against Candida parapsilosis ATCC 22019 measured after 24 to 48 hrs by CLSI method. The following applies: Lodderomyces parapsilosis, time 24-48 hrs.

≈ marks a conversion by molar mass, not a printed value. Peptide text beside a SMILES is read from it.

The term MIC denotes the lowest concentration found to suppress growth. Higher therefore signals a less susceptible organism. In the case of `CC(C)C[C@H](NC(=O)[C@H](CCC(=O)O)NC(=O)[C@H](CCCCN)NC(=O)[C@H](CC(C)C)NC(=O)[C@@H](NC(=O)[C@@H]1CCCN1)C(C)C)C(=O)N[C@@H](CCCCN)C(=O)N[C@@H](CO)C(=O)N[C@H](C(=O)N[C@@H](CCC(N)=O)C(=O)N[C@@H](CCCCN)C(=O)N[C@H](C(=O)N[C@@H](CCCCN)C(=O)N[C@@H](CO)C(=O)NCC(=O)N[C@@H](CC(=O)O)C(=O)N[C@H](C(=O)N[C@@H](CC(C)C)C(=O)N[C@@H](Cc1ccc(O)cc1)C(=O)O)[C@@H](C)O)[C@@H](C)O)C(C)C` (H-PVLKELKSVQKTKSGDTLY-OH), the MIC with Candida albicans, in the assay with Pichia kudriavzevii, against Cryptococcus neoformans and in the assay with Candida parapsilosis was > 120 µM throughout.
In the case of `CC(C)[C@H](NC(=O)[C@H](CCCNC(=N)N)NC(=O)[C@H](Cc1ccccc1)NC(=O)[C@H](CS)NC(=O)[C@H](Cc1c[nH]c2ccccc12)NC(=O)[C@H](CCCNC(=N)N)NC(=O)[C@@H](N)CCCNC(=N)N)C(=O)N[C@@H](CS)C(=O)N[C@@H](Cc1ccc(O)cc1)C(=O)N[C@@H](CCCNC(=N)N)C(=O)NCC(=O)N[C@@H](Cc1ccccc1)C(=O)N[C@@H](CS)C(=O)N[C@@H](Cc1ccc(O)cc1)C(=O)N[C@@H](CCCNC(=N)N)C(=O)N[C@@H](CCCCN)C(=O)N[C@@H](CS)C(=O)N[C@@H](CCCNC(=N)N)C(=O)O` (H-RRWCFRVCYRGFCYRKCR-OH), the MIC against Candida albicans turned out to be 4.07 µM (≈ 10 µg/mL); in the assay with Pichia kudriavzevii, 4.07 µM (≈ 10 µg/mL); in the assay with Cryptococcus neoformans, 1.02 µM (≈ 2.51 µg/mL); against Candida parapsilosis, 1.02 µM (≈ 2.51 µg/mL).
With `CC[C@H](C)[C@H](NC(=O)[C@H](C)NC(=O)[C@H](CS)NC(=O)[C@H](CO)NC(=O)[C@@H](NC(=O)[C@H](Cc1ccccc1)NC(=O)[C@@H](N)Cc1ccc(O)cc1)[C@@H](C)CC)C(=O)N[C@@H](Cc1cnc[nH]1)C(=O)N[C@@H](Cc1ccccc1)C(=O)N[C@@H](CCCCN)C(=O)N[C@H](C(=O)N[C@@H](CC(C)C)C(=O)N[C@@H](CCCCN)C(=O)N[C@H](C(=O)N[C@@H](CCCNC(=N)N)C(=O)N[C@@H](CO)C(=O)N[C@@H](C)C(=O)N[C@@H](C)C(=O)N[C@@H](CCCCN)C(=O)N[C@@H](CCCNC(=N)N)C(=O)N[C@@H](CCCNC(=N)N)C(=O)N[C@@H](CCC(=O)O)C(=O)N[C@@H](Cc1cnc[nH]1)C(=O)N[C@H](C(=O)N[C@@H](CCCCN)C(=O)N[C@@H](CC(C)C)C(=O)N[C@@H](CCCNC(=N)N)C(=O)O)[C@@H](C)O)[C@@H](C)CC)[C@@H](C)CC` (H-YFISCAIHFKILKIRSAAKRREHTKLR-OH), the MIC in the assay on Candida albicans came out at 77.9 µM (≈ 256 µg/mL); in the assay on Pichia kudriavzevii, 19.5 µM (≈ 64 µg/mL); with Cryptococcus neoformans, 38.9 µM (≈ 128 µg/mL); in the assay on Candida parapsilosis it was 77.9 µM (≈ 256 µg/mL).
Turning to `CC[C@H](C)[C@H](NC(=O)[C@H](Cc1cnc[nH]1)NC(=O)[C@H](C)NC(=O)[C@H](CC(C)C)NC(=O)[C@H](CC(C)C)NC(=O)[C@H](CCCCN)NC(=O)[C@H](CCSC)NC(=O)[C@@H](NC(=O)[C@@H](NC(=O)[C@H](Cc1cnc[nH]1)NC(=O)[C@H](Cc1c[nH]c2ccccc12)NC(=O)[C@@H](NC(=O)[C@H](CCCCN)NC(=O)[C@H](Cc1cnc[nH]1)NC(=O)[C@@H](NC(=O)[C@H](CCCCN)NC(=O)[C@H](Cc1cnc[nH]1)NC(=O)[C@@H](N)Cc1ccc(O)cc1)[C@@H](C)CC)C(C)C)[C@@H](C)CC)[C@@H](C)CC)C(=O)O` (H-YHKIHKVWHIIMKLLAHI-OH), the MIC against Candida albicans was determined as 28.1 µM (≈ 64 µg/mL); with Pichia kudriavzevii it was 7.02 µM (≈ 16 µg/mL); against Cryptococcus neoformans it was 7.02 µM (≈ 16 µg/mL); with Candida parapsilosis, 14 µM (≈ 32 µg/mL).
Turning to `CC[C@H](C)[C@H](NC(=O)[C@H](CCCNC(=N)N)NC(=O)CNC(=O)[C@H](CC(C)C)NC(=O)[C@H](Cc1ccccc1)NC(=O)[C@H](CCC(N)=O)NC(=O)[C@H](Cc1ccccc1)NC(=O)[C@@H](N)C(C)C)C(=O)N[C@H](C(=O)N[C@@H](Cc1cnc[nH]1)C(=O)N[C@@H](Cc1cnc[nH]1)C(=O)N[C@H](C(=O)NCC(=O)N[C@@H](CC(N)=O)C(=O)N[C@@H](Cc1ccccc1)C(=O)N[C@H](C(=O)N[C@@H](Cc1cnc[nH]1)C(=O)NCC(=O)N[C@@H](Cc1ccccc1)C(=O)N[C@@H](CO)C(=O)N[C@@H](Cc1cnc[nH]1)C(=O)N[C@H](C(=O)N[C@@H](Cc1ccccc1)C(=O)O)C(C)C)C(C)C)C(C)C)[C@@H](C)CC` [Clavanin B] (H-VFQFLGRIIHHVGNFVHGFSHVF-OH), the MIC in the assay on Candida albicans, in the assay on Pichia kudriavzevii, against Cryptococcus neoformans and against Candida parapsilosis was > 95 µM in each case.

The values are drawn from ChEMBL document CHEMBL5113381, “Large-Scale Screening of Antifungal Peptides Based on Quantitative Structure-Activity Relationship” (2022).
